Drawing on patent US20240207264A1, “PHARMACEUTICAL COMPOSITIONS COMPRISING INHIBITORS OF THE ANDROGEN RECEPTOR AND USES THEREOF” (ESSA PHARMA INC., priority 2021, published 2024), this text covers AUC(0-inf), AUC(0-t) and Cmax for 1 molecule.

A short description of this data set: PK study, single PO dose, mice. The data set is classed as in vivo. As to conditions: male, CD-1, mouse, plasma, male CD-1 mice. The method, then:
A single PO dose of Compound A in different doses in solid dispersion and at 30 mg/kg dose of Compound A in solution were administered to male CD-1 mice. Mean plasma of Compound A was measured over 24 hour period after administration of Compound A (FIG. 15C) and PK parameters were determined (Table 31).

[1] abbreviates: 10 mg/kg, PO 10 mg/kg, Suspension A (SDD).
The mark [2] stands for this setting: 30 mg/kg, PO 30 mg/kg, Solution (9% DMSO, 9% NMP, 27% solutol, 55% PEG400).
[3] abbreviates: 30 mg/kg, PO 30 mg/kg, Suspension A (SDD).
Setting [4] is: 90 mg/kg, PO 90 mg/kg, Suspension A (SDD).
[5] abbreviates: 270 mg/kg, PO 270 mg/kg, Suspension A (SDD).

One may read the AUC(0-inf) as the area under the concentration-time curve extrapolated to infinity. As a reminder, the AUC(0-t) is the area under the concentration-time curve up to a stated or last time point. Read a high AUC(0-t) as more exposure. The term Cmax denotes the highest concentration seen after dosing. As to `CC(C)(c1ccc(OCc2ccnc(NS(C)(=O)=O)n2)cc1)c1cc(Cl)c(OCCCl)c(C#N)c1` [Compound A, N-(4-((4-(2-(3-chloro-4-(2-chloroethoxy)-5-cyanophenyl)propan-2-yl)phenoxy)methyl)pyrimidin-2-yl)methanesulfonamide], the AUC(0-inf) under setting [1] came to 189 µg·h/mL; the AUC(0-inf) under setting [2] worked out at 352 µg·h/mL; the total exposure AUC(0-inf) under setting [3] was 604 µg·h/mL; the total exposure AUC(0-inf) under setting [4] was 1700 µg·h/mL; the AUC(0-inf) under setting [5] was determined as 2690 µg·h/mL. The AUC(0-t) runs as follows: under setting [1], 177 µg·h/mL; under setting [2], 336 µg·h/mL; under setting [3], 565 µg·h/mL; under setting [4], 1570 µg·h/mL; under setting [5], 2310 µg·h/mL. The Cmax is, setting by setting: under setting [1], 14300 ng/mL; under setting [2], 32000 ng/mL; under setting [3], 45900 ng/mL; under setting [4], 110000 ng/mL; under setting [5], 162000 ng/mL.
